{"source": "paper PMC4765731", "about": "(Anticancer research, 2015)", "key": {"[1]": {"system": "human lung (A549) cancer cell line", "assay": "Cell viability, crystal violet dye binding assay, A549", "type": "cell-based"}, "[2]": {"system": "A549 cells", "assay": "Mitochondrial membrane potential", "type": "cell-based, human", "settings": "rhodamine-123"}, "[3]": {"system": "A549 cells", "assay": "ROS production, DCFDA dye", "type": "cell-based, human", "settings": "30 min"}, "[4]": {"settings": "read-out: CC50 (cytotoxic concentration), A549, A549, 48 h exposure, crystal violet, mean ± SD"}, "[5]": {"settings": "Homo sapiens, A549, 48 h, read-out: CC50 (cytotoxic concentration), A549, A549, 48 h exposure, crystal violet, mean ± SD"}}, "note": "Where two headings read alike, the source gives them in different places."}
{"compound": "CC(=O)Oc1ccc2cc(-c3ccc(S(C)(=O)=O)cc3)c(=O)oc2c1OC(C)=O", "note": "[Compound 7, 8-(acetyloxy)-3-(4-methanesulfonylphenyl)-2-oxo-2H-chromen-7-yl acetate]", "values": [{"measurement": "fold decrease in potency compared to docetaxel (CC50, A549)", "setting": "[1]; A549, 48 h, 7 vs docetaxel", "value": 2.5, "unit": "fold"}, {"measurement": "CC50", "setting": "[1]; [4]", "value": "24.2 ± 0.7", "unit": "µM"}, {"measurement": "MMP fluorescence intensity in comparison to untreated control (100%)", "setting": "[2]; A549, 10 μM", "value": 96.4, "unit": "%"}, {"measurement": "MMP fluorescence intensity in comparison to untreated control (100%)", "setting": "[2]; A549, 25 μM", "value": 94.8, "unit": "%"}, {"measurement": "MMP fluorescence intensity in comparison to untreated control (100%)", "setting": "[2]; A549, 50 μM", "value": 93.4, "unit": "%"}, {"measurement": "MMP fluorescence intensity in comparison to untreated control (100%)", "setting": "[2]; A549, 75 μM", "value": 92.9, "unit": "%"}, {"measurement": "MMP fluorescence intensity in comparison to untreated control (100%)", "setting": "[2]; A549, 100 μM", "value": 81.7, "unit": "%"}, {"measurement": "ROS fluorescence intensity in comparison to untreated control (100%)", "setting": "[3]; A549, 10 μM", "value": 107.1, "unit": "%"}, {"measurement": "ROS fluorescence intensity in comparison to untreated control (100%)", "setting": "[3]; A549, 25 μM", "value": 129.0, "unit": "%"}, {"measurement": "ROS fluorescence intensity in comparison to untreated control (100%)", "setting": "[3]; A549, 50 μM", "value": 136.6, "unit": "%"}, {"measurement": "ROS fluorescence intensity in comparison to untreated control (100%)", "setting": "[3]; A549, 75 μM", "value": 146.0, "unit": "%"}, {"measurement": "ROS fluorescence intensity in comparison to untreated control (100%)", "setting": "[3]; A549, 100 μM", "value": 231.2, "unit": "%"}]}
{"compound": "CS(=O)(=O)c1ccc(-c2cc3ccccc3oc2=O)cc1", "note": "[Compound 9, 3-(4-methanesulfonylphenyl)-2H-chromen-2-one]", "values": [{"measurement": "CC50", "setting": "[1]; [5]", "value": "> 100", "unit": "µM"}]}
{"compound": "CC(=O)O[C@@]12CO[C@@H]1C[C@H](O)[C@@]1(C)C(=O)[C@H](O)C3=C(C)[C@@H](OC(=O)[C@H](O)[C@@H](NC(=O)OC(C)(C)C)c4ccccc4)C[C@@](O)([C@@H](OC(=O)c4ccccc4)[C@H]21)C3(C)C", "note": "[Docetaxel, reference compound]", "values": [{"measurement": "CC50", "setting": "[1]; [5]", "value": 9.47, "unit": "µM"}, {"measurement": "CC50", "setting": "[1]; [4]", "value": "9.4 ± 0.07", "unit": "µM"}]}
{"compound": "CC(=O)Oc1ccc(-c2cc3ccc(OC(C)=O)c(OC(C)=O)c3oc2=O)cc1", "note": "[Compound 6, 8-(acetyloxy)-3-[4-(acetyloxy)phenyl]-2-oxo-2H-chromen-7-yl acetate]", "values": [{"measurement": "CC50", "setting": "[1]; [5]", "value": 75.2, "unit": "µM"}, {"measurement": "CC50", "setting": "[1]; [4]", "value": "75.9 ± 0.65", "unit": "µM"}]}
{"compound": "CC(=O)Oc1ccc(-c2c(C)c3ccccc3oc2=O)cc1", "note": "[Compound 10, 4-(4-methyl-2-oxo-2H-chromen-3-yl)phenyl acetate]", "values": [{"measurement": "CC50", "setting": "[1]; [5]", "value": "> 100", "unit": "µM"}]}
{"compound": "Cc1c(-c2ccc(S(C)(=O)=O)cc2)c(=O)oc2ccccc12", "note": "[Compound 11, 3-(4-methanesulfonylphenyl)-4-methyl-2H-chromen-2-one]", "values": [{"measurement": "CC50", "setting": "[1]; [5]", "value": "> 100", "unit": "µM"}]}
